Values quoted from earlier work in US7705017B2, “Compounds for treatment of neurodegenerative diseases” (En Vivo Pharmaceuticals, Inc., priority 2004, dated 2010).

Assays:
[1] = test system: Huntington's disease in a mouse model; conditions: orally administered
[2] = test system: Histone Deacetylase-Like Protein (HDLP); conditions: HDLP deacetylates histones in vitro

inhibition of HDAC-like protein (HDLP) [2] | Structure (SMILES) | motor impairment in mice [1]
– | O=C(CCCCCCC(=O)Nc1ccccc1)NO [SAHA, suberoylanilide hydroxamic acid] | dramatically improved the motor impairment
inhibited | CC(/C=C/C(=O)NO)=C\[C@@H](C)C(=O)c1ccc(N(C)C)cc1 [TSA, trichostatin A] | –
